These results are taken from US20220402901A1 (Bial - R&D Investments, S.A., priority 2019, published 2022).

≈ marks a conversion by molar mass, not a printed value. Bounds are passed on as bounds.

The nature of data set [1]: Compound solubility in water. It counts as physicochemical. The conditions noted are these: read-out: Solubility in H2O.
Data set [2] has as its target T1, Human acid ceramidase (hACR) (Homo sapiens, UniProt Q13510).
T1 construct: expressed in transfected cells; lysates of cells overexpressing acid ceramidase
T1 sequence (Q13510 22-395): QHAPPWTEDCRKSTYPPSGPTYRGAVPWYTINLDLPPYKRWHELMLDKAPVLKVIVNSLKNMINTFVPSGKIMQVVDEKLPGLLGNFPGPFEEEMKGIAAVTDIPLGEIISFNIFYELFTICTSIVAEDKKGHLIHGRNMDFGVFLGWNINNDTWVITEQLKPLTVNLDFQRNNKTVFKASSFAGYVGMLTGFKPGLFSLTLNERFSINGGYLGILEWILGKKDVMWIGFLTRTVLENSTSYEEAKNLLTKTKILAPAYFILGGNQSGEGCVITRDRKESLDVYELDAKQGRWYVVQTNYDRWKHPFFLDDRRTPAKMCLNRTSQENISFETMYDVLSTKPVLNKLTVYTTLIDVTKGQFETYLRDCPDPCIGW
In words: Acid ceramidase biochemical fluorescent assay (cell lysates overexpressing acid ceramidase, substrate Rbm14-12). Conditions: 10 μg lysate protein, 1 hr preincubation at RT, pH 4.5, Rbm14-12 6.3 μM. As for the experimental part: The ability of exemplary compounds to inhibit acid ceramidase was measured.
Cell lysates overexpressing acid ceramidase were used as the enzyme source for compound potency determination in a biochemical fluorescent assay. Briefly, compounds were preincubated with 10 μg protein of cell lysates in a dose-response manner for 1 hr at RT in the assay buffer containing 25 mM NaAC and 100 mM NaCl, pH 4.5. The reaction was initiated by the addition of substrate Rbm14-12 at a final concentration of 6.3 μM. The reaction was run at RT for 1 hr before it was stopped by the addition of the stopping buffer containing 20% methanol (v/v), 1 mg/ml NaIO4, 0.1 M glycine, pH 10.6. The samples were incubated with the stopping buffer at RT for 1 hr to allow the fluorescent product to be formed. Finally the plate was read with SpectraMax i3 plate reader (Molecular Devices) at ex360 nm and em446 nm. Data were collected and used to determine the IC50 values of compounds by curve fitting to the four-parameter inhibition equation.
The symbol “A” indicates inhibition of less than 0.2 μM; the symbol “B” indicates inhibition in the range of 0.2 μM up to 1 μM; and the symbol “C” indicates inhibition of greater than 1 μM.

For orientation: solubility means the dissolved amount per volume that the medium holds. One may read the IC50 as the concentration that gives 50% inhibition. Read a high IC50 as a need for much substance. Take `O=C(NCCCCc1ccccc1)N1CCC(c2ccc3[nH]c(=O)oc3c2)CC1` [Example 1, 4-(2-Oxo-3H-1,3-benzoxazol-6-yl)-N-(4-phenylbutyl)piperidine-1-carboxamide]: the solubility in data set [1] came to 2.4 µM (≈ 0.944 µg/mL). For the same compound, the IC50 in data set [2] is 200 to 1000 nM.
As to `CC1CN(c2ccc3c(c2)oc(=O)n3C)CC(C)N1C(=O)NCCCCc1ccccc1` (centres unmarked) [Example 59, 2,6-Dimethyl-4-(3-methyl-2-oxo-1,3-benzoxazol-6-yl)-N-(4-phenylbutyl)piperazine-1-carboxamide], in data set [1], the solubility amounted to 0.5 µM (≈ 0.218 µg/mL). In data set [2], this compound gave an IC50 below 200 nM.
Turning to `Cn1c(=O)oc2cc(C3CCN(C(=O)NCCc4ccccc4)C(C)(C)C3)ccc21` (centres unmarked) [Example 25, 2,2-Dimethyl-4-(3-methyl-2-oxo-1,3-benzoxazol-6-yl)-N-(2-phenylethyl)piperidine-1-carboxamide], the solubility in data set [1] was 26 µM (≈ 10.6 µg/mL). In data set [2], this compound registered an IC50 below 200 nM.
With `Cn1c(=O)oc2cc(C3CCN(C(=O)NCCOCc4ccccc4)C(C)(C)C3)ccc21` (centres unmarked) [Example 27, N-(2-Benzyloxyethyl)-2,2-dimethyl-4-(3-methyl-2-oxo-1,3-benzoxazol-6-yl)piperidine-1-carboxamide], the solubility in data set [1] was determined as 9.4 µM (≈ 4.11 µg/mL). For the same compound, the IC50 in data set [2] is below 200 nM.
As to `Cn1c(=O)oc2cc(C3CCN(C(=O)NCCCCc4ccccc4)C(C)(C)C3)ccc21` (centres unmarked) [Example 24, 2,2-Dimethyl-4-(3-methyl-2-oxo-1,3-benzoxazol-6-yl)-N-(4-phenylbutyl)piperidine-1-carboxamide], the solubility in data set [1] was determined as 1.3 µM (≈ 0.566 µg/mL). This compound also returned an IC50 in data set [2] below 200 nM.
On to `Cn1c(=O)oc2cc(N3CCN(C(=O)NCCCCc4ccccc4)C(C)(C)C3=O)ccc21` [Example 64, 2,2-Dimethyl-4-(3-methyl-2-oxo-1,3-benzoxazol-6-yl)-3-oxo-N-(4-phenylbutyl)piperazine-1-carboxamide], for which the solubility in data set [1] was 6.8 µM (≈ 3.06 µg/mL). Further, the IC50 in data set [2] is below 200 nM.
On to `Cn1c(=O)oc2cc(C3CC4CCC(C3)N4C(=O)NCCCCc3ccccc3)ccc21` (centres unmarked) [Example 33, 3-(3-Methyl-2-oxo-1,3-benzoxazol-6-yl)-N-(4-phenylbutyl)-8-azabicyclo[3.2.1]octane-8-carboxamide], for which the solubility in data set [1] was 3.2 µM (≈ 1.39 µg/mL). Also, the IC50 in data set [2] is below 200 nM.
Regarding `Cn1c(=O)oc2cc(C3CCCN(C(=O)NCCCCc4ccccc4)C3)ccc21` (centres unmarked) [Example 12, 3-(3-Methyl-2-oxo-1,3-benzoxazol-6-yl)-N-(4-phenylbutyl)piperidine-1-carboxamide], the solubility in data set [1] is 8 µM (≈ 3.26 µg/mL). In addition, the IC50 in data set [2] is above 1000 nM.
Turning to `Cn1c(=O)oc2cc(N3CCN(C(=O)NCCCCc4ccccc4)CC3=O)ccc21` [Example 63, 4-(3-Methyl-2-oxo-1,3-benzoxazol-6-yl)-3-oxo-N-(4-phenylbutyl)piperazine-1-carboxamide], in data set [1], the solubility worked out at 51.4 µM (≈ 21.7 µg/mL). The 50% inhibitory concentration (IC50) in data set [2] is above 1000 nM.
As to `CN1CCN(C(=O)NCCCCc2ccccc2)CC1c1ccc2c(c1)oc(=O)n2C` (centres unmarked) [Example 41, 4-Methyl-3-(3-methyl-2-oxo-1,3-benzoxazol-6-yl)-N-(4-phenylbutyl)piperazine-1-carboxamide], the solubility in data set [1] came to 135 µM (≈ 57 µg/mL). Moreover, in data set [2], the IC50 was above 1000 nM.
As to `CC1CC(c2ccc3c(c2)oc(=O)n3C)CCN1C(=O)NCCCCc1ccccc1` (mixture of isomers) [Example 16, 2-methyl-4-(3-methyl-2-oxo-1,3-benzoxazol-6-yl)-N-(4-phenylbutyl)piperidine-1-carboxamide], the solubility in data set [1] worked out at 2.2 µM. The 50% inhibitory concentration (IC50) in data set [2] was below 200 nM.
For the compound `Cn1c(=O)oc2cc(N3CC(C)(C)N(C(=O)NCCCCc4ccccc4)CC3=O)ccc21` [Example 65, 2,2-Dimethyl-4-(3-methyl-2-oxo-1,3-benzoxazol-6-yl)-5-oxo-N-(4-phenylbutyl)piperazine-1-carboxamide], the solubility in data set [1] amounted to 18.9 µM (≈ 8.52 µg/mL). The same compound came in with a half-maximal inhibitory concentration (IC50) in data set [2] below 200 nM.
Take `CC(C)CNC(=O)N1CCC(c2ccc3c(c2)oc(=O)n3C)C[C@@H]1C` (stereo partly drawn) [Example 22, N-iso-Butyl (2S)-methyl-4-(3-methyl-2-oxo-1,3-benzoxazol-6-yl)piperidine-1-carboxamide]: the solubility in data set [1] was 235 µM (≈ 81.2 µg/mL). For the same compound, the IC50 in data set [2] is 200 to 1000 nM.
